Data on four molecules can be found in patent US20100210652A1, “Method For Controlling Fungal Pests” (priority 2006, published 2010).

In test [1] the test system is resistant Plasmopara viticola strains. Briefly: Activity against resistant Plasmopara viticola strains on grapevine plants (Riesling). The test is classed as in vivo. Particulars: for diseased leaf area: resistant fungi, grapevine (Riesling), final evaluation on day 6; for assessment in words of the treatment of resistant fungal strains: preventative treatment. Here is the method:
(§1) Study on the activity of the four carboxamide fungicides against sensitive and resistant Plasmopara viticola strains.
(§2) Four-week old grapevine plants (Riesling) with 6-8 leaves are treated with 50 ml of a solution which contains the harmful fungi (200 000 spores of the fungus Plasmopara viticola per milliliter). Tests are carried out both with sensitive and with resistant strains.
(§3) The fungicidal active substances described in Example 1 are applied both one day before the treatment with the harmful fungi (preventative treatment) and in each case one day after the treatment with the harmful fungi (curative treatment). After the treatment with the harmful fungi, the plants are left to stand overnight at 95% atmospheric humidity and a temperature of 18° C. This is followed by a 6-day observation phase and a final evaluation on day 6, the test plants being exposed to daylight for 12 hours and left to stand in the dark for 12 hours.
(§4) To promote spore development, the undersides of the grapevine leaves are sprayed with water 24 hours before carrying out the final evaluation and left to stand.
(§5) The experiments are evaluated by determining the percentage of diseased leaf area of each plant. A high percentage means a high disease level caused by the harmful fungus, while a low percentage means a low disease level caused by the harmful fungus.

Test [2] has as its system sensitive Plasmopara viticola strains. Briefly: Activity against sensitive Plasmopara viticola strains on grapevine plants (Riesling). The format is in vivo. The conditions noted are these: final evaluation on day 6. Here is the method: as §1, §2, §3, §4, §5
Where [3] appears, read: curative treatment (one day after treatment with the harmful fungi).
Where [4] appears, read: preventative treatment (one day before treatment with the harmful fungi).

SMILES strings stand for the structures.

Take `C#CCOc1ccc(CCNC(=O)C(OCC#C)c2ccc(Cl)cc2)cc1OC` (racemic) [stock solution B, (RS)-2-(4-chlorophenyl)-N-[3-methoxy-4-(prop-2-ynyloxy)phenethyl]-2-(prop-2-ynyloxy)acetamide]: the diseased leaf area was 65% in test [1] (setting [3]), 8% in test [1] (setting [4]), 0% in test [2] (setting [3]) and 0% in test [2] (setting [4]). Further, the “assessment in words of the treatment of resistant fungal strains” value (shortened to “assessment in words”) in test [1] is on record as “effective”.

Take `COc1ccc(C(=CC(=O)N2CCOCC2)c2ccc(Cl)cc2)cc1OC` [stock solution A, (E,Z)-4-[3-(4-chlorophenyl)-3-(3,4-dimethoxyphenyl)acryloyl]morpholine]: the diseased leaf area is reported as 70% in test [1] (setting [3]), 0.5% in test [1] (setting [4]), 0% in test [2] (setting [3]) and 0% in test [2] (setting [4]). Moreover, the “assessment in words” value in test [1] is “effective”.

Regarding `Cc1ccc(C(C)NC(=O)[C@@H](NC(=O)OC(C)C)C(C)C)cc1` (stereo partly drawn) [stock solution C, isopropyl 2-methyl-1-[(1-p-tolylethyl)carbamoyl]-(S)-propylcarbamate], the diseased leaf area in test [1] (setting [3]) is 75%; in test [1] (setting [4]) it was 70%; in test [2] (setting [3]), 0%; in test [2] (setting [4]), 0%. For the same molecule, the “assessment in words” value in test [1] was “no satisfactory results”.

For `CC(C)OC(=O)N[C@H](C(=O)N[C@H](C)c1nc2ccc(F)cc2s1)C(C)C` [stock solution D, isopropyl[(S)-1-{[(R)-1-(6-fluoro-1,3-benzothiazol-2-yl)ethyl]carbamoyl}-2-methylpropyl]carbamate], the diseased leaf area is 70% in test [1] (setting [3]), 55% in test [1] (setting [4]), 0% in test [2] (setting [3]) and 0% in test [2] (setting [4]). Further, the “assessment in words” value in test [1] is “no satisfactory results”.
